What all share (format): biochemical
Assay [1] concerns the target T1, FGFr (human FGF-1 (flg) receptor tyrosine kinase) (Homo sapiens, UniProt P11362).
T1 construct: PCR primers are designed to amplify a fragment of DNA that codes for the intracellular tyrosine kinase domain; made in house; host or cells: Sf9 insect cells (baculovirus), cell lysate
Put plainly: FGFr tyrosine kinase assay, 32P incorporation into glutamate-tyrosine copolymer. To be noted: 50 μM ATP; read-out: FGFr IC50. On the procedure:
(§1) Platelet Derived Growth Factor Receptor (PDGFr) and Fibroblast Growth Factor Receptor (FGFr). Full length cDNAs for the mouse PDGF-β and human FGF-1 (flg) receptor tyrosine kinases were obtained from J. Escobedo and are prepared as described in J. Biol. Chem., 1991;262:1482-1487. PCR primers are designed to amplify a fragment of DNA that codes for the intracellular tyrosine kinase domain. The fragment is melded into a baculovirus vector, cotransfected with AcMNPV DNA, and the recombinant virus isolated. SF9 insect cells are infected with the virus to overexpress the protein, and the cell lysate is used for the assay.
(§2) PDGFr and FGFr. […] Briefly, to each well is added 82.5 μL of incubation buffer containing 25 mM Hepes (pH 7.0), 150 mM NaCl, 0.1% Triton X-100, 0.2 mM PMSF, 0.2 mM sodium vanadate, 10 mM manganese chloride, and 750 μg/mL of poly (4:1) glutamate-tyrosine followed by 2.5 μL of inhibitor and 5 μL of enzyme lysate (7.5 μg/μL FGFR-TK or 6.0 μg/μL PDGFR-TK) to initiate the reaction. Following a 10 minute incubation at 25° C., 10 μL of [γ^32 P]ATP (0.4 μCi plus 50 μM ATP) is added to each well, and samples are incubated for an additional 10 minutes at 25° C. The reaction is terminated by the addition of 100 μL of 30% trichloroacetic acid (TCA) containing 20 mM sodium pyrophosphate and precipitation of material onto glass fiber filter mats (Wallac). […] Nonspecific activity is defined as radioactivity retained on the filters following incubation of samples with buffer alone; (no enzyme). Specific enzymatic activity is defined as total activity (enzyme plus buffer) minus nonspecific activity.

The target in assay [2] is Protein kinase C (PKC). Put plainly: Protein kinase C (PKC) assay. To be noted: rat brain preparation. The procedure:
(§3) Other Kinases. c-Src kinase is purified from baculovirus infected insect cell lysates using an antipeptide monoclonal antibody directed against the N-terminal 2-17 amino acids as described previously by Fry, et al., Anticancer Drug Design, 1994;9:331-351. Protein kinase C (PKC.) is obtained as a rat brain preparation from Promega.
(§4) Other Kinases. An assay using the intracellular kinase domains of insulin receptor (INSr) is performed as described for the EGF receptor except that 10 mM manganese chloride is included in the reaction. The PKC assay is performed as previously described by Martiny-Baron, et al., J. Biol. Chem., 1993;268:9194-9197.

The target of assay [3] is T2, c-Src (Homo sapiens, UniProt P12931).
T2 construct: made in house; host or cells: baculovirus infected insect cells
Kind of assay: c-Src kinase assay, 32P incorporation into polyglutamate-tyrosine. The settings on record: 5 μM ATP. The procedure:
as §3
c-Src. The antibody, covalently linked to 0.65-μm latex beads, is added to a suspension of insect cell lysis buffer comprised of 150 mM NaCl, 50 mM Tris pH 7.5, 1 mM DTT, 1% NP-40, 2 mM EGTA, 1 mM sodium vanadate, 1 mM PMSF, 1 μg/mL each of leupeptin, pepstatin, and aprotinin. Insect cell lysate containing the c-Src protein is incubated with these beads for 3 to 4 hours at 4° C. with rotation. At the end of the lysate incubation, the beads are rinsed three times in lysis buffer, resuspended in lysis buffer containing 10% glycerol, and frozen. These latex beads are thawed, rinsed three times in assay buffer which is comprised of 40 mM tris pH 7.5, 5 mM magnesium chloride, and suspended in the same buffer. In a Millipore 96-well plate with a 0.65 μm polyvinylidine membrane bottom are added the reaction components: 10-μL c-Src beads, 10 μL of 2.5 mg/mL polyglutamate-tyrosine substrate, 5 μM ATP containing 0.2 μCi labeled ^32 P-ATP, 5 μL DMSO containing inhibitors or as a solvent control, and buffer to make the final volume 125 μL. The reaction is started at room temperature by addition of the ATP and quenched 10 minutes later by the addition of 125 μL of 30% TCA, 0.1 M sodium pyrophosphate for 15 minutes on ice. The plate is then filtered and the wells washed with two 250-μL aliquots of 15% TCA, 0.1 M pyrophosphate. The filters are punched, counted in a liquid scintillation counter, and the data examined for inhibitory activity in comparison to a known inhibitor such as erbstatin. The method is described more fully in J. Med. Chem., 1994;37:598-609.

Assay [4] deals with T3, PDGFr (mouse PDGF-β receptor tyrosine kinase) (Mus musculus, UniProt P05622).
T3 construct: PCR primers are designed to amplify a fragment of DNA that codes for the intracellular tyrosine kinase domain; made in house; host or cells: Sf9 insect cells (baculovirus), cell lysate
Kind of assay: PDGFr tyrosine kinase assay, 32P incorporation into glutamate-tyrosine copolymer. To be noted: 50 μM ATP. On the procedure: as §1, §2

The target in assay [5] is cdk4/cyclinD (Homo sapiens, UniProt P11802). Kind of assay: Cyclin-Dependent Kinase 4 (cdk4/cyclinD) Assay. The settings on record: 25 μM ATP, retinoblastoma substrate. On the procedure:
Cyclin-Dependent Kinase 4 (cdk4/cyclinD) Assay
Enzyme assays for IC50 determinations and kinetic evaluation were performed in 96-well filter plates (Millipore MADVN6550). The total volume was 0.1 mL containing a final concentration of 20 mM TRIS (tris[hydroxymethyl]aminomethane), at pH 7.4, 50 mM NaCl, 1 mM dithiothreitol, 10 mM MgCl2, 25 μM ATP containing 0.25 μCi of [^32 P]ATP, 20 ng of cdk4/cyclinD, 1 μg of retinoblastoma, and appropriate dilutions of a compound of the present invention. All components except the ATP were added to the wells, and the plate was placed on a plate mixer for 2 minutes. The reaction was started by adding [^32 P]ATP and the plate was incubated at 25° C. for 15 minutes. The reaction was terminated by addition of 0.1 mL of 20% trichloroacetic acid (TCA). The plate was kept at 4° C. for at least 1 hour to allow the substrate to precipitate. The wells were then washed 5 times with 0.2 mL of 10% TCA and ^32 P incorporation was determined with a beta plate counter (Wallace Inc., Gaithersburg, Md.).

Assay [6] addresses cdk2/cyclinE (Homo sapiens, UniProt P24941). Kind of assay: Cyclin-Dependent Kinase Assay, cdk2/cyclinE. To be noted: retinoblastoma substrate. The procedure:
(§5) Cyclin-Dependent Kinase Assays (cdk2/cyclinE, cdk2/cyclinA, cdkl/cyclinB)
(§6) All components except the ATP were added to the wells, and the plate was placed on a plate mixer for 2 minutes. The reaction was begun by addition of [^32 P]ATP, and the plate was incubated at 25° C. for 15 minutes. The reaction was terminated by addition of 0.1 mL of 20% TCA. The plate was kept at 4° C. for least 1 hour to allow the substrate to precipitate. The wells were then washed 5 times with 0.2 mL of 10% TCA and ^32 P incorporation determined with a beta plate counter (Wallace Inc., Gaithersburg, Md.).

The target of assay [7] is T4, insulin receptor (INSr) (Homo sapiens, UniProt P06213).
T4 construct: An assay using the intracellular kinase domains of insulin receptor (INSr)
Kind of assay: Insulin receptor (INSr) kinase assay. The settings on record: 10 mM manganese chloride. On the procedure: (§7) EGFr. Enzyme assays for IC50 determinations are performed in 96-well filter plates (Millipore MADVN6550). The total volume is 0.1 mL containing 20 mM Hepes, pH 7.4, 50 μM sodium vanadate, 40 mM magnesium chloride, 10 μM ATP containing 0.5 μCi of [^32 P]ATP, 20 μg of polyglutamic acid/tyrosine (Sigma Chemical Co., St. Louis, Mo.), 10 ng of EGF receptor tyrosine kinase and appropriate dilutions of inhibitor. All components except the ATP are added to the well, and the plate is incubated with shaking for 10 minutes at 25° C. The reaction is started by adding [^32 P]ATP, and the plate is incubated at 25° C. for 10 minutes. The reaction is terminated by addition of 0.1 mL of 20% trichloroacetic acid (TCA). The plate is kept at 4° C. for at least 15 minutes to allow the substrate to precipitate. The wells are then washed five times with 0.2 mL of 10% TCA, and ^32 P incorporation is determined with a Wallac beta plate counter.
as §4

Assay [8] addresses T5, EGFr (Human EGF receptor tyrosine kinase) (Homo sapiens, UniProt P00533).
T5 construct: Human EGF receptor tyrosine kinase is isolated from A431 human epidermoid carcinoma cells; endogenous in cells; host or cells: A431 human epidermoid carcinoma cells (detergent lysate, Q Sepharose fractions)
Put plainly: EGFr tyrosine kinase assay. The settings on record: 10 μM ATP. The procedure:
Epidermal Growth Factor Receptor (EGFr). Human EGF receptor tyrosine kinase is isolated from A431 human epidermoid carcinoma cells by the following method. Cells were grown in roller bottles in 50% Dulbecco's Modified Eagle medium and 50% HAM F-12 nutrient media (Gibco) containing 10% fetal calf serum. Approximately 10^9 cells are lysed in two volumes of buffer containing 20 mM 2-(4N-[2-[…]]piperazin-1-yl)ethanesulfonic acid (Hepes), pH 7.4, 5 mM ethylene glycol bis(2-aminoethyl ether) N,N,N',N'-tetraacetic acid (EGTA), 1% Triton X-100, 10% glycerol, 0.1 mM sodium orthovanadate, 5 mM sodium fluoride, 4 mM pyrophosphate, 4 mM benzamide, 1 mM dithiothreitol (DTT), 80 μg/mL aprotinin, 40 μg/mL leupeptin, and 1 mM phenylmethylsulfonyl fluoride (PMSF). After centrifugation at 25,000×g for 10 minutes, the supernatant is applied to a fast Q sepharose column (Pharmacia) and eluted with a linear gradient from 0.1 M NaCl to 0.4 M NaCl in 50 mM Hepes, 10% glycerol, pH 7.4. Enzyme active fractions are pooled, divided into aliquots, and stored at -100° C.
as §7

Assay [9] deals with cdk1/cyclinB (Homo sapiens, UniProt P06493). Kind of assay: Cyclin-Dependent Kinase Assay, cdk1/cyclinB. The settings on record: 12 mM ATP, retinoblastoma substrate. The procedure:
as §5, §6

In assay [10] the target is cdk2/cyclinA (Homo sapiens, UniProt P24941). Put plainly: Cyclin-Dependent Kinase Assay, cdk2/cyclinA. The settings on record: 12 mM ATP, retinoblastoma substrate. The procedure: as §5, §6

Bounds are passed on as bounds.

T2 sequence (P12931 whole entry, species assumed): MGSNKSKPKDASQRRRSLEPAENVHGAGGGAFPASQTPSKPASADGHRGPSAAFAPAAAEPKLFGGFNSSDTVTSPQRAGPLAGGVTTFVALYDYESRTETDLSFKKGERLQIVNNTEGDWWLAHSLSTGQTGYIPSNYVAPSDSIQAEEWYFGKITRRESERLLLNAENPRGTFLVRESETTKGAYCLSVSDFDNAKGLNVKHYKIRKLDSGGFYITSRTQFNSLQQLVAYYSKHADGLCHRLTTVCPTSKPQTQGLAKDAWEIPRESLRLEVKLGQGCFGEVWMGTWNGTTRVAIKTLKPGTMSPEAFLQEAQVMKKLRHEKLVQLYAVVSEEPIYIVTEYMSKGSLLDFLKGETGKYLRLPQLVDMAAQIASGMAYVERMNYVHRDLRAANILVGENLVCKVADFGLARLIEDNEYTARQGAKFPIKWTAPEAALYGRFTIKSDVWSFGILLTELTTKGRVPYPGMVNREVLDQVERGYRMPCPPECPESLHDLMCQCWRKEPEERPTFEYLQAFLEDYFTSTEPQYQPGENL
T1 sequence (P11362 478-767 limits assumed): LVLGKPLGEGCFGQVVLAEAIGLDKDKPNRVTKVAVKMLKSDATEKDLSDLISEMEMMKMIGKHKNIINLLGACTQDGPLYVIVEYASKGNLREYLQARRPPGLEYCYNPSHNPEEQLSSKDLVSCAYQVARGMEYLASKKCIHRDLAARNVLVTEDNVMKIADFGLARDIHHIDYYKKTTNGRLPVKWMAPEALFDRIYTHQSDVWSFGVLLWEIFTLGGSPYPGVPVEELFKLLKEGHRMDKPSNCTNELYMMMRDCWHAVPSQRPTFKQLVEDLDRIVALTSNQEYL
cdk1/cyclinB, sequence (P06493 whole entry, species assumed): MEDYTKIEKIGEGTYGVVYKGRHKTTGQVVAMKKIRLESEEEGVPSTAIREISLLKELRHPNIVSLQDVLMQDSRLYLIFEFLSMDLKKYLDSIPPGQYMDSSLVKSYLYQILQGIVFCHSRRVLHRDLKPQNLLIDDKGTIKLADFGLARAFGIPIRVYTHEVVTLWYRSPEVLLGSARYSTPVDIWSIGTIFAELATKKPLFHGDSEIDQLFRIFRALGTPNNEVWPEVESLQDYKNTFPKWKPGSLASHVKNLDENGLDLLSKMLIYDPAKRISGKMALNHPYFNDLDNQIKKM
cdk1/cyclinB, sequence (P14635 whole entry partner, species assumed): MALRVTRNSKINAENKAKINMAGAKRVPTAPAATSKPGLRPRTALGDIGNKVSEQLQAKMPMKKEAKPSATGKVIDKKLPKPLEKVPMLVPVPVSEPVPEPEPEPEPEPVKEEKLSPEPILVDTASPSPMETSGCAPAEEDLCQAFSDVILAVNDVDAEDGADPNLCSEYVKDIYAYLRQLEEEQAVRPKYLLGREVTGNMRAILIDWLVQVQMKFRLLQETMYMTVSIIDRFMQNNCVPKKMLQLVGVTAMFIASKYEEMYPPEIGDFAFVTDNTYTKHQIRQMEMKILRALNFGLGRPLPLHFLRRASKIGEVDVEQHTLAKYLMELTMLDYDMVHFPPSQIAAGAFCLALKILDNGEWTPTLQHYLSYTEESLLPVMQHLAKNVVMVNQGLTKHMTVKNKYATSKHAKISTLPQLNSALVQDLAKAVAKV
cdk4/cyclinD, sequence (P11802 whole entry, species assumed): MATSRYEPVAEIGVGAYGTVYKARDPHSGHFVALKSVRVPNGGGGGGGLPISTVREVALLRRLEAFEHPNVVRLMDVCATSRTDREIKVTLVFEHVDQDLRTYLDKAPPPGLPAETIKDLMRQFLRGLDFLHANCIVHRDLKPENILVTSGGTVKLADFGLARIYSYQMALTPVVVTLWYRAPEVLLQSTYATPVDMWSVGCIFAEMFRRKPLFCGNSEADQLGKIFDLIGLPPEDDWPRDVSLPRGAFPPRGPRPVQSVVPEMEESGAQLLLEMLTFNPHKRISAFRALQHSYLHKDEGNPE
cdk4/cyclinD, sequence (P24385 whole entry partner, species assumed): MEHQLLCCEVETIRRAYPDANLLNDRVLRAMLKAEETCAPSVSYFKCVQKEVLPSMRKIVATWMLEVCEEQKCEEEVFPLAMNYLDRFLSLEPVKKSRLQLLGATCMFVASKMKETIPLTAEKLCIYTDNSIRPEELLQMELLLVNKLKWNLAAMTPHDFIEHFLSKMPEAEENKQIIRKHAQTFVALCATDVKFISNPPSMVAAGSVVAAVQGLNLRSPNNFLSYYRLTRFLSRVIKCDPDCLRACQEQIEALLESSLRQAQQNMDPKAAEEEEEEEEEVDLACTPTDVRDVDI
T3 sequence (P05622 599-961 limits assumed): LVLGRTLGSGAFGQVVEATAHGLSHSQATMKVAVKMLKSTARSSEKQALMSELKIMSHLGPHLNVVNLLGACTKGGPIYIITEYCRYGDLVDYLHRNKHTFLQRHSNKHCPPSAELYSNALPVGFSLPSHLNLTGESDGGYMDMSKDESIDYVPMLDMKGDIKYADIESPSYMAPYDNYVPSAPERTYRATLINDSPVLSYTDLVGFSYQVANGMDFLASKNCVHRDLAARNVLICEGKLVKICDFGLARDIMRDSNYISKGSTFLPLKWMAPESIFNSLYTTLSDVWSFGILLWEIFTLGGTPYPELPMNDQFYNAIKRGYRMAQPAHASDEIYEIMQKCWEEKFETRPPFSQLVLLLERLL
T5 sequence (P00533 25-1210): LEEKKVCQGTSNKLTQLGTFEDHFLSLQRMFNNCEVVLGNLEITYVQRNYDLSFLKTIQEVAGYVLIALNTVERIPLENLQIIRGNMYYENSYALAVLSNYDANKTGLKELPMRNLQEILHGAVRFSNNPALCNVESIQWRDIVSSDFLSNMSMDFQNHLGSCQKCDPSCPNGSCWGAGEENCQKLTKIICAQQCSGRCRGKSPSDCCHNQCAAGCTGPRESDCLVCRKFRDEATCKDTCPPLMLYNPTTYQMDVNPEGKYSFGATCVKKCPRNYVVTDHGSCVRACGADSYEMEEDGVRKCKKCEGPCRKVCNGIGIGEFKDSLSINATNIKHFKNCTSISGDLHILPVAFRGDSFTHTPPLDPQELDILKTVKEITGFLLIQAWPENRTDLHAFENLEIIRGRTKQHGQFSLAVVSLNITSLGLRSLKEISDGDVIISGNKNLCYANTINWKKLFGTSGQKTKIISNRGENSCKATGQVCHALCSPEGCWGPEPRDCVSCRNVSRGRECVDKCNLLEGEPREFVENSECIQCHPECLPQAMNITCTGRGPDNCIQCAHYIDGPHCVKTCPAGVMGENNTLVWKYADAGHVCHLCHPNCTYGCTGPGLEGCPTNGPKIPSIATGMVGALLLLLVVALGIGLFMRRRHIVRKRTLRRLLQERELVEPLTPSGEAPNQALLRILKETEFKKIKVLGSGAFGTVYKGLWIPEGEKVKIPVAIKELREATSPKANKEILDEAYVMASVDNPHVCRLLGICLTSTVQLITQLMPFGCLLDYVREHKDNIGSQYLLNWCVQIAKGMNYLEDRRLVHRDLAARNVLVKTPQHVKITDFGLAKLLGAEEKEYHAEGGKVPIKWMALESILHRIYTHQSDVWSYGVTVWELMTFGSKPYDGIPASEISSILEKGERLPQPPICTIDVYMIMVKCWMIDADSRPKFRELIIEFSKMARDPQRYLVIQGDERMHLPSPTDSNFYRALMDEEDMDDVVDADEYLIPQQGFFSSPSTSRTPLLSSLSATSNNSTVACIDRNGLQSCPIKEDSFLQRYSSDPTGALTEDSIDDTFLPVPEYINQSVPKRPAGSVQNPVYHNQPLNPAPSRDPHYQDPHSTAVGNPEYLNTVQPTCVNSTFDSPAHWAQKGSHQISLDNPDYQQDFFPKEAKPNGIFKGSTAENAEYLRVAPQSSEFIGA
T4 sequence (P06213 1023-1298 limits assumed, species assumed): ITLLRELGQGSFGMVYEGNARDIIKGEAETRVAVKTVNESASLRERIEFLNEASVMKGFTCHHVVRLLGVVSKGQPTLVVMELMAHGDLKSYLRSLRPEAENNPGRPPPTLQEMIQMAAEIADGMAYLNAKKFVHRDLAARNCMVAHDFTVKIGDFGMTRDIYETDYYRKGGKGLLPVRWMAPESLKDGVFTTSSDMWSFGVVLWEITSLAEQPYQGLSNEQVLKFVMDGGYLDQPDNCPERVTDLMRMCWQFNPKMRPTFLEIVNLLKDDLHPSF

For `Cn1c(=O)c(-c2c(Cl)cccc2Cl)cc2cnc(N)cc21` [Example A, 7-amino-3-(2,6-dichlorophenyl)-1-methyl-1H-[1,6]naphthyridin-2-one], the IC50 in assay [1] is 0.28 µM; in assay [2], 50 µM; in assay [3] it was 0.35 µM; in assay [4], 2.5 µM.

With `CCn1c(=O)ccc2cnc(Nc3ccc(N4CCCCC4)cc3)cc21` [Example AA, 1-ethyl-7-(4-(piperidin-1-yl)phenylamino)-1H -[1,6]naphthyridin-2-one], the IC50 in assay [5] was 1.5 µM; in assay [1] it was 12.4 µM; in assay [6] it was 5 µM; in [3] it was under 50 µM; in [4], over 50 µM.

As to `CN(C)c1cc2c(cn1)cc(-c1c(Cl)cccc1Cl)c(=O)n2C` [Example C, 3-(2,6-dichlorophenyl)-7-dimethylamino-1-methyl-1H -[1,6]naphthyridin-2-one], the IC50 in assay [7] and in assay [3] was over 50 µM each time.

In the case of `Cn1c(=O)c(-c2c(Cl)cccc2Cl)cc2cnc(NCCCN3CCOCC3)cc21` [Example K, 3-(2,6-dichlorophenyl)-1-methyl-7-[3-(4-morpholino)propylamino]-1H-[1,6]naphthyridin-2-one], the IC50 in [2] is over 50 µM; in assay [3] it was 0.36 µM; in assay [8], under 50 µM; in assay [4], 4.7 µM.

As for `Cn1c(=O)c(-c2c(Cl)cccc2Cl)cc2cnc(Nc3ccccc3)cc21` [Example M, 3-(2,6-dichlorophenyl)-1-methyl-7-(phenylamino)-1H-[1,6]naphthyridin-2-one], the concentration for half-maximal inhibition (IC50) is 1.3 µM in [1]; over 50 µM in [2]; 0.79 µM in assay [3]; under 50 µM in assay [8]; 1 µM in assay [4].

For the compound `CCN(CC)CCCOc1ccc(Nc2cc3c(cn2)cc(-c2c(Cl)cccc2Cl)c(=O)n3C)cc1` [Example R, 3-(2,6-dichlorophenyl)-7-[(4-(3-(diethylamino)propoxy)phenyl)amino]-1-methyl-1H-[1,6]naphthyridin-2-one], the values for the concentration for half-maximal inhibition (IC50) in assay [1], in [3] and in assay [4] were 0.18 µM, 0.03 µM and 0.37 µM, respectively.

Turning to `CCn1c(=O)ccc2cnc(Nc3ccccc3)cc21` [Example W, 1-ethyl-7-phenylamino-1H-[1,6]naphthyridin-2-one], the IC50 is 1.9 µM in [9]; 4.2 µM in assay [5]; 17 µM in assay [1]; 1.1 µM in assay [6]; over 50 µM in assay [3]; over 50 µM in assay [4]. In assay [10], this compound yielded a concentration for half-maximal inhibition (IC50) of 0.88 µM.

Take `CCn1c(=O)ccc2cnc(Nc3ccc(OC)cc3)cc21` [Example X, 1-ethyl-7-(4-methoxyphenylamino)-1H-[1,6]naphthyridin-2-one]: the IC50 in [9] was 1.5 µM; in assay [5] it was 2.6 µM; in [1] it was 10.4 µM; in [6] it was 1.3 µM; in assay [3], over 50 µM; in assay [4], 5 to 50 µM. For the same compound, the half-maximal inhibitory concentration (IC50) in [10] worked out at 0.83 µM.

Turning to `CCn1c(=O)ccc2cnc(Nc3ccc(N4CCN(C)CC4)cc3)cc21` [Example Y, 1-ethyl-7-[4-(4-methylpiperazin-1-yl)phenylamino]-1H-[1,6]naphthyridin-2-one], the IC50 was 7.4 µM in [9]; 0.35 µM in assay [5]; 1.4 µM in [1]; 5.8 µM in assay [6]; 11.4 µM in [3]; 5.6 µM in assay [4]. In addition, the IC50 in assay [10] is 3.5 µM.

The values above are taken from patent US6150359A, “Naphthyridinones for inhibiting protein tyrosine kinase and cell cycle kinase mediated cellular proliferation” (Warner-Lambert Company, priority 2000, dated 2000).
